Laboratory results published in patent US9567586B2, “EpCAM aptamer for detection of cancer stem cells” (DEAKIN UNIVERSITY, priority 2012, dated 2017).
Like-named read-outs stand apart in the source and are kept apart here.

Legend:
EpCAM [1] = target: T1, EpCAM (Homo sapiens, UniProt P16422); details: patients with metastatic breast cancer; cited from earlier work
T1 sequence (P16422 24-314): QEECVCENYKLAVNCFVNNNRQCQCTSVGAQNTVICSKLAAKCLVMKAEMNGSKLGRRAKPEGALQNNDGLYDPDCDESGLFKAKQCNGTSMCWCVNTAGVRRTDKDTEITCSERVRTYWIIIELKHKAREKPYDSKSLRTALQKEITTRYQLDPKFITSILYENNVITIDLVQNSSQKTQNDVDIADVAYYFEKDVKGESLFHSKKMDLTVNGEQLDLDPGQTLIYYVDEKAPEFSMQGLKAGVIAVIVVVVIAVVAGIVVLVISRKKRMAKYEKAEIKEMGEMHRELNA

[2] = target: T2, native EpCAM expressed on the cell surface (Homo sapiens, UniProt P16422); test: Binding affinities of EpCAM aptamers by flow cytometry; details: read-out: KD (±SEM)
T2 construct: host or cells: T47D, MCF7, MDA-MB-231, HT-29 (EpCAM-positive); U118MG (EpCAM-negative control)
T2 sequence (P16422 24-314): T1 sequence (P16422 24-314)
Experimental: (§1) Cells were harvested at 80% confluence with trypsin digestion and resuspended in washing buffer (DPBS with 5 mM MgCl2) and enumerated. Following centrifugation (1000×g for 5 min), the cell pellet was resuspended in assay buffer (DPBS supplemented with 5 mM MgCl2, 0.1 mg/ml tRNA, 0.1 mg/ml salmon sperm DNA, 0.2% [w/v] sodium azide, and 5% FCS) and diluted to 1×10^6/mL. The blocking step was carried out at 4′C. The binding of the aptamers was carried out at 37′C for 30 min or 4′C for 1 h, with the final concentration of magnesium chloride being 2.5 mM in all binding assays.
(§2) The equilibrium dissociation constant (K′d) of successful 2′-fluoropyrimidine RNA aptamer species to native EpCAM expressed on the cell surface was determined using flow cytometry with EpCAM-positive and -negative cell lines and a negative control (2-O-methyl-pyrimidine) aptamer (5′-DY647-mGCmGACUmGmGUUmACCCmGmGUCmGdT-3′) (SEQ ID NO:13). Kato III or U118MG cells (5×10^5) were first incubated with assay buffer followed by two washes with binding buffer prior to incubation with serial concentrations (approximately 10-fold above and below the apparent K′d) of FITC-labelled aptamer in a 100 μL assay buffer for 1 h on ice. The cells were washed three times, resuspended in 150 μL assay buffer containing 2.5 mM MgCl2 and subjected to flow cytometric analyses. The FITC-labelled unselected library was used as another negative control. The mean fluorescence intensity (MFI) of the unselected library was subtracted from that of the aptamer-target cell to generate the MFI of specific binding. The K′d for each aptamer was determined by Scatchard analysis according to the equation: [Bound aptamer]/[aptamer]=−(1/KD)×[bound aptamer]+([T]tol/KD) where [T]tot represents the total target concentration. Design and Generation of EpCAM Aptamer-siRNA Chimera
(§3) The binding affinities of both aptamers have been characterised against all five cell lines used in this study by flow cytometry, and the results are shown in Table 1.

[3] = tested on: native EpCAM expressed on the cell surface; test: as above; design: species or system human; details: U118MG cells (EpCAM negative); read-out: KD (±SEM)
Experimental: as §1, §2, §3

EpCAM [4] = test: Immunofluorescence staining of paraffin embedded xenograft tumour sections; design: species or system human; key to Quantification of anti-EpCAM staining by immunofluorescence: ‘−’ no staining; ‘+’ faint incomplete staining in >10% of cells; ‘++’ moderate complete membrance staining; ‘+++’ strong complete membrance staining
Experimental: (§4) A: Immunofluorescence staining of breast cancer (T47D, MCF7 and MDA-MB-231), colon cancer (HT-29) and glioblastoma (U118MG) xenograft tumours by EpCAM aptamers, DT3 and 23, control aptamer and the anti-EpCAM antibody, 323/A3 (Blue: nuclei; Red: EpCAM positive staining). B: Immunohistochemistry was performed with the anti-EpCAM antibody BerEP4, and all tumours were evaluated by haematoxylin and eosin staining for morphological confirmation. Aptamer staining was performed for 15 min at 37° C., while 323/A3 staining was performed at 4° C. overnight and BerEP4 was performed at room temperature for 20 min. All fluorescent images were taken at 60×, while light microscopy images were taken at 20×. Images are representative of at least three separate experiments. Scale bar: 50 μm.
(§5) The cell lines of human origin used in this study were purchased from American type Culture Collection. They were glioblastoma U118-MG; breast carcinoma MCF-7, MDA-MB-231 and T47D; and colorectal adenocarcinoma HT-29. Cells were grown and maintained in culture with Dulbecco's Modified Eagle medium (DMEM) (Invitrogen, Victoria, Australia) supplemented with 10% fetal calf serum (MCF-7, T47D, HT-29, and U118-MG), or Roswell Park Memorial Institute 1640 (RPMI 1640) (Invitrogen) with 10% fetal calf serum (MDA-MB-231). Cells were maintained at 37 ^CC in a humidified atmosphere containing 5% CO2. For xenograft studies, single cell suspensions were harvested by trypsinisation, washed with PBS and resuspended in 0.1 mL of PBS for implantation in BALB/c-Foxn1 ^nu female mice. Once tumours had reached approximately […], they were excised and fixed in 10% neutral buffered formalin prior to processing and embedding. All animal procedures were approved by Deakin University Animal Welfare Committee, and in accordance with the Australian Code of Practice for the Care and Use of Animals for Scientific Purposes.
(§6) Sections from each of the xenograft tumours were cut at 4 μm onto polylysine coated slides prior to deparaffinisation with Histoclear and rehydration through graded ethanol. Heat induced antigen retrieval was performed in a microwave oven using Tris-EDTA buffer (10 mM Tris, 1 mM EDTA, 0.05% Tween 20, pH 9.0) for 20 min and the slides were allowed to cool prior to blocking with 0.1 mg/mL tRNA, 0.1 mg/mL salmon sperm DNA and 1 mg/mL bovine serum albumin (BSA) in phosphate buffered saline (PBS) for 20 min. Following the blocking step, slides were washed in PBS containing 0.1% Tween 20 twice for 2 min prior to incubation with either aptamer or antibody. Aptamers were prepared as previously described (Shigdar S et al, supra). Briefly, aptamers were heated to 85° C. for 5 min, allowed to cool to room temperature for 10 min and then heated at 37° C. for 15 min. Slides were incubated with aptamers at 100 nM concentration in a solution of PBS containing 5 mM MgCl2, 0.1 mg/mL tRNA, 1 mg/mL BSA, 10% dextran sulphate and 500 μg/mL heparin for 15 min at 37° C. The slides were then washed three times for 5 min each prior to incubation with Bisbenzimide Hoechst 33342 (3 μg/mL) for 10 min. Slides were then mounted using VECTASHIELD and coverslipped prior to visualisation using a Fluoview FV10i laser scanning confocal microscope. All images used for direct comparison were taken with identical exposure parameters and are presented without any digital contrast alteration or background subtraction. Antibody staining was performed using the anti-EpCAM antibody 323/A3 (ab8601, Abcam). […]

EpCAM [5] = target: T1, EpCAM; test: as above; design: from tissue; host or cells: xenograft tumours of T47D, MCF7, MDA-MB-231, HT-29 and U118MG cells grown in BALB/c-Foxn1 nu mice, formalin-fixed and paraffin-embedded; key to Quantification of anti-EpCAM staining by immunofluorescence: ‘−’ no staining; ‘+’ faint incomplete staining in >10% of cells; ‘++’ moderate complete membrance staining; ‘+++’ strong complete membrance staining
Experimental: as §4, §5
as §6, with “Abcam). Slides were washed and blocked following the same protocol as previously described prior to antibody staining. The antibody was prepared at a concentration of 10 μg/mL and the slides were incubated overnight at 4° C. Slides were then washed three times for 5 min followed by incubation with a goat-anti-mouse IgG AlexaFluor 647 conjugate (Invitrogen) at a concentration of 10 μg/mL for 2 h prior to washing, staining with Bisbenzimide Hoechst 33342, and coverslipping.” for “Abcam).”

| Substance | clinical response (EpCAM [1]) | Kd ([2]; HT29 cells) [nM] | Kd ([2]; MCF7 cells) [nM] | Kd ([2]; MDA-MB-231 cells) [nM] | Kd ([2]; T47D cells) [nM] | Kd [3] [nM] | Quantification of anti-EpCAM staining by immunofluorescence (EpCAM [4]; U118MG xenograft) | staining of U118MG xenograft (in words) (EpCAM [4]; U118MG xenograft that does not express EpCAM) | staining of HT-29 xenograft sections (in words) (EpCAM [5]; HT-29 colorectal cancer xenograft) | Quantification of anti-EpCAM staining by immunofluorescence (EpCAM [5]; HT-29 xenograft) | Quantification of anti-EpCAM staining by immunofluorescence (EpCAM [5]; MCF7 xenograft) | Quantification of anti-EpCAM staining by immunofluorescence (EpCAM [5]; MDA-MB-231 xenograft) | detection of EpCAM in MDA-MB-231 xenograft tumour (in words) (EpCAM [5]; MDA-MB-231 xenograft, low EpCAM expression) | Quantification of anti-EpCAM staining by immunofluorescence (EpCAM [5]; T47D xenograft) | staining of human breast cancer xenografts (in words) (EpCAM [5]; T47D, MCF7 and MDA-MB-231 xenografts, 100 nM, 15 min, 37° C., dextran sulphate and heparin) |
| --- | --- | --- | --- | --- | --- | --- | --- | --- | --- | --- | --- | --- | --- | --- | --- |
| adecatumumab: fully humanised monoclonal anti-EpCAM antibody | dose-dependent and target dependent clinical responses |  |  |  |  |  |  |  |  |  |  |  |  |  |  |
| 5′-GCGACUGGUUACCCGGUCG-3′ (RNA aptamer, modifications not given here, further chemistry not given here) [DT3] |  | 158 ± 70 | 50 ± 18.5 | 98.9 ± 37.8 | 74.2 ± 26.2 | > 1000 | − | no staining detectable | did not show any staining | − | + (‘+’ faint incomplete staining in >10% of cells) | + (‘+’ faint incomplete staining in >10% of cells) | successfully detect EpCAM | ++ | highly sensitive staining |
